From patent US6132697A, “Radiopharmaceutical compositions capable of localizing at sites of thrombus” (G. D. Searle & Co., priority 1997, dated 2000)

Columns and labels:
[1] = biological target: T1, GPIIb/IIIa receptors (Homo sapiens, UniProt P05106+P08514); experiment: ADP induced platelet aggregation inhibition assay in platelet rich plasma; format: cell-based; conditions: read-out: IC50 (half-maximal inhibition of platelet aggregation)
T1 construct: endogenous in cells; host or cells: platelets in platelet rich plasma from healthy volunteer donors
Description: This Example describes Platelet Aggregation Inhibition Assays of the compound of Example 2 to illustrate that the compound binds to GPIIb/IIIa receptors when radiolabelled.
Healthy aspirin free donors were randomly selected from a pool of volunteers. The harvesting of platelet rich plasma and subsequent ADP induced platelet aggregation assays were performed as described in Zucker, M. B. "Platelet Aggregation Measured by the Photometric Method", Methods in Enzymology 169 (1989):117-133. Standard venipuncture techniques using butterfly allowed the withdrawal of 45 mL of whole blood into a 60 mL syringe containing 5 mL 3.8% trisodium citrate. Following thorough mixing in the syringe, the anti-coagulated whole blood was transferred to a 50 mL conical polyethylene tube. The blood was centrifuged at room temperature for 12 minutes at 200xg to sediment non-platelet cells. Platelet poor plasma was obtained from a second centrifugation of the remaining blood at 2000xg for 15 minutes. Platelet counts are typically 300,000 to 500,000 per microliter. […] Aggregation was recorded for 3 minutes in a Payton dual channel aggregometer (Payton Scientific, Buffalo, N.Y.). […] The compounds were tested in duplicate and half-maximal inhibition (IC50) was calculated graphically from the dose response curve. […]

[2] = system: pulmonary emboli (PE) and/or deep vein thrombus (DVT); experiment: Canine model for pulmonary embolism / deep vein thrombus (embolization coils); format: in vivo, dog; conditions: sacrifice at 3 hours
Description: These studies are designed to serve as a preliminary screen of various radiolabeled pharmaceuticals for the purpose of imaging pulmonary emboli (PE) and/or deep vein thrombus (DVT).
Procedure: The dog is first anesthetized with an intravenous injection of sodium pentobarbital (30 mg/kg). An IV catheter is placed into the jugular vein and advanced to the pulmonary artery. Visualization of the catheter placement is facilitated using fluoroscopy. Embolization coils of various sizes (3-8 mm) are next released via the catheter using the appropriate guide wire, and localization of the coils is followed by fluoroscopy. After a satisfactory number of coils (3-5) have been placed and visualized, the catheter is removed and the vein ligated. The formation of a deep vein thrombus (DVT) in the saphenous vein is facilitated by the placement of a 16 gauge needle into the vein followed by the passage of a 5 mm embolization coil through the needle directly into the vein.
IV injection (cephalic vein) of the radiolabeled test article occurs approximately 30-45 minutes post placement of the embolization coils. Approximate activity injected is 2.5-3.5mCi. Beginning at 30 minutes post injection and continuing for several hours at 30 minute intervals, the animal is scintigraphed in both the lateral and supine positions.
At the conclusion of the imaging portion of the study (3 hours) the animal is sacrificed, and selected tissues removed for scintillation counting. The coils are located, removed and quantitated for uptake of the radiotracer. From these values is determined the target:non-target ratios and blood clearance of the test article.
The compound of claim 19 was administered to a canine according to the general protocol described in Example 16.

[3] = Biodistribution in rat model (radioactivity in organs, excretion); format: in vivo, Sprague-Dawley rats
Description: This study was designed to evaluate the biodistribution pattern of the compound of Example 2 to determine the clearance profile from blood, route of excretion and in vivo stability of the complex by HPLC analysis of urine samples, in a rat model.
The compound of Example 2 was injected ([…], 1.5-3.5 mCi/mL) into Sprague-Dawley rats. Groups of three animals were sacrificed at the time points indicated below to determine the amount of radioactivity remained in the organs. Results: (to be filled)
The compound of Example 7 was injected ([…], 1.5-3.5 mCi/mL) into Sprague-Dawley rats. Groups of three animals were sacrificed at the time points indicated below to determine the amount of radioactivity (%ID/g) remaining in the organs.
The compound of Example 12 was injected into Sprague-Dawley rats according to the procedure outlined in Example 5. The amount of radioactivity present in the major excretionary organs at different time points (1, 4 and 24 hours) are given below.
The compound of Example 19 was injected into Sprageue-Dawley rats according to the procedure outlined earlier. The amount of radioactivity present in the major excretionary organs at different time points (1, 4 and 24 hours) are given below.
The compound of Example 26 was injected ([…], 1.5-3.5 mCi/mL) into Sprague-Dawley rats. Groups of three animals were sacrificed at the time points indicated below to determine the amount of radioactivity remaining in the organs.

T1 sequence (P08514 32-887 limits assumed): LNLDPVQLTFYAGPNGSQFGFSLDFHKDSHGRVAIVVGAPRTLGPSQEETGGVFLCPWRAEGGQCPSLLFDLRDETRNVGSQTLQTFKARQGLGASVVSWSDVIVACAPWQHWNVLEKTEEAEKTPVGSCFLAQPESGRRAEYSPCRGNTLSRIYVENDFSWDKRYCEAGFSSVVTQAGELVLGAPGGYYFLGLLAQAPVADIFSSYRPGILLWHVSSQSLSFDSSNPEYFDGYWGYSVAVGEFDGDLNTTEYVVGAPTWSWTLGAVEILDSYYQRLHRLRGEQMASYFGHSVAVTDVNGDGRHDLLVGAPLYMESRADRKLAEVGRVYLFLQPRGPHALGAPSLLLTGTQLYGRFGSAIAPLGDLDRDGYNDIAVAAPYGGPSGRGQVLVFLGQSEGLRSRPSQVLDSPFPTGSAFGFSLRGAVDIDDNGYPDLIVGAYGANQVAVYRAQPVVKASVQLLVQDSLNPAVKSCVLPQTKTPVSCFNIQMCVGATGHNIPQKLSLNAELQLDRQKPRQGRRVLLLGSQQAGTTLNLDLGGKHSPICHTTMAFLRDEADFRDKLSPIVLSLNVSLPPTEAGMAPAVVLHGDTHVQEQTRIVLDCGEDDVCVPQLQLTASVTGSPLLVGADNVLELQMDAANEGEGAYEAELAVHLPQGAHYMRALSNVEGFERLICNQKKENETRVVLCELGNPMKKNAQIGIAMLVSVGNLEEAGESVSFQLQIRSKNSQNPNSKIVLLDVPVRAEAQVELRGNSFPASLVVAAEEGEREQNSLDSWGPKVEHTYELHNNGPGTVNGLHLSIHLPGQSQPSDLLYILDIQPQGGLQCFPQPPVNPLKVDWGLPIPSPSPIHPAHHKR
T1 sequence (P08514 891-1039 partner limits assumed): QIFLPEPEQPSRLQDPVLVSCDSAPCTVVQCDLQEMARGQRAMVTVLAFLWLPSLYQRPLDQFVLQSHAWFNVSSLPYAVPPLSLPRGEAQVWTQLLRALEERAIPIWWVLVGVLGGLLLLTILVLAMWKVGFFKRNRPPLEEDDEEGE
T1 sequence (P05106 27-788): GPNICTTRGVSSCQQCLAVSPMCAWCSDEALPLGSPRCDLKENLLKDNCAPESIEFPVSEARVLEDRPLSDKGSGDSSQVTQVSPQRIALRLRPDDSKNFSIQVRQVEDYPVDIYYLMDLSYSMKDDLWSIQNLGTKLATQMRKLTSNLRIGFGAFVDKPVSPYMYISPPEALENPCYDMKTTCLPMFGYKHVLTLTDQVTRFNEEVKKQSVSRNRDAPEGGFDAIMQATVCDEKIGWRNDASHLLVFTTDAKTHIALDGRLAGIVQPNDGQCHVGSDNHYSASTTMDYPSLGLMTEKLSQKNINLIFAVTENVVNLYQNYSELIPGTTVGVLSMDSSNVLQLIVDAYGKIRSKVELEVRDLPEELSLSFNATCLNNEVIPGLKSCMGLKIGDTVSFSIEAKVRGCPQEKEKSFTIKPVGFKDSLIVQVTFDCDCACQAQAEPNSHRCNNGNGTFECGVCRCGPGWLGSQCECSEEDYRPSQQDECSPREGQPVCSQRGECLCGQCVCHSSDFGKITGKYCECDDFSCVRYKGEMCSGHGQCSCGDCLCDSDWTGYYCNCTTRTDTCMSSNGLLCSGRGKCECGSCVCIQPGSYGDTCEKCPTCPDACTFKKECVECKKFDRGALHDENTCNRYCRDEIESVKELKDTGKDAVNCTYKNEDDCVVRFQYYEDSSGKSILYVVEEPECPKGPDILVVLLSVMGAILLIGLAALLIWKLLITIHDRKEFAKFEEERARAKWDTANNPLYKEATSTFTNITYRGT

CN(C)CCNC(=O)C(CCC(=O)O)NC(=O)C(CCCCNC(=O)CCNC(=O)C(CC(=O)O)NC(=O)CCC(=O)Nc1ccc(C(=N)N)cc1)NC(=O)CSC1CCCCO1 [Example 18, ABAS-L-Asp-β-Ala-ε-L-Lys(α-S-THP-mercaptoacetyl)-Glu-dme]
IC50 [1]: 490 nM

CN(C)CC[N]1C(=O)C(CCC(=O)O)[N]2C(=O)C(CCCCNC(=O)CCNC(=O)C(CC(=O)O)NC(=O)CCC(=O)Nc3ccc(C(=N)N)cc3)[N]3C(=O)C[S][99Tc-]132=[O] (centres unmarked) [Example 19]
% ID/g ([2]; Blood): 0.0018 % ID/g | % ID/g ([2]; Clot 1 (DVT)): 0.0828 % ID/g | Clot/blood ([2]; Clot 1 (DVT)): 43 | % ID/g ([2]; Clot 2 (PE)): 0.0114 % ID/g | Clot/blood ([2]; Clot 2 (PE)): 6 | % ID/g ([2]; Clot 3 (PE)): 0.125 % ID/g | Clot/blood ([2]; Clot 3 (PE)): 65 | % ID/g ([2]; Clot 4 (PE)): 0.142 % ID/g | Clot/blood ([2]; Clot 4 (PE)): 74 | % ID/g ([2]; Clot 5 (PE)): 0.1232 % ID/g | Clot/blood ([2]; Clot 5 (PE)): 64 | radioactivity in organ: Blood ([3]; 1 hour): 0.067 % ID/g | radioactivity in organ: Kidney ([3]; 1 hour): 0.864 % ID/g | radioactivity in organ: Liver ([3]; 1 hour): 0.158 % ID/g | radioactivity in organ: Sml. Int & Contents ([3]; 1 hour): 0.645 % ID/g | radioactivity in organ: Blood ([3]; 4 hours): 0.011 % ID/g | radioactivity in organ: Kidney ([3]; 4 hours): 0.520 % ID/g | radioactivity in organ: Liver ([3]; 4 hours): 0.024 % ID/g | radioactivity in organ: Sml. Int & Contents ([3]; 4 hours): 0.015 % ID/g | radioactivity in organ: Blood ([3]; 24 hours): 0.004 % ID/g | radioactivity in organ: Kidney ([3]; 24 hours): 0.241 % ID/g | radioactivity in organ: Liver ([3]; 24 hours): 0.009 % ID/g | radioactivity in organ: Sml. Int & Contents ([3]; 24 hours): 0.002 % ID/g | % ID excreted in the feces at 24 hr. [3]: 32.758 % ID | % ID excreted in the urine at 24 hr. [3]: 41.217 % ID

CN(C)CC[N]1C(=O)C(CCC(=O)O)[N]2C(=O)C(CCCC(=O)NCCCCC(NC(=O)C(CC(=O)O)NC(=O)CCC(=O)Nc3ccc(C(=N)N)cc3)C(=O)O)[N]3C(=O)C[S][99Tc-]132=[O] (centres unmarked) [Example 26]
radioactivity in organ: Blood ([3]; 1 hour): 0.067 % ID/g | radioactivity in organ: Kidney ([3]; 1 hour): 0.628 % ID/g | radioactivity in organ: Liver ([3]; 1 hour): 0.043 % ID/g | radioactivity in organ: Sml. Int & Contents ([3]; 1 hour): 0.206 % ID/g | radioactivity in organ: Blood ([3]; 4 hours): 0.011 % ID/g | radioactivity in organ: Kidney ([3]; 4 hours): 0.536 % ID/g | radioactivity in organ: Liver ([3]; 4 hours): 0.015 % ID/g | radioactivity in organ: Sml. Int & Contents ([3]; 4 hours): 0.031 % ID/g | radioactivity in organ: Blood ([3]; 24 hours): 0.007 % ID/g | radioactivity in organ: Kidney ([3]; 24 hours): 0.227 % ID/g | radioactivity in organ: Liver ([3]; 24 hours): 0.014 % ID/g | radioactivity in organ: Sml. Int & Contents ([3]; 24 hours): 0.009 % ID/g | % ID excreted in the feces at 24 hr. [3]: 16.277 % ID | % ID excreted in the urine at 24 hr. [3]: 54.708 % ID

CN(C)CC[N]1C(=O)C(CCC(=O)O)[N]2C(=O)C(CCCC(=O)NCCCCC(NC(=O)C(CC(=O)O)NC(=O)CCC(=O)Nc3ccc(C(=N)N)cc3)C(=O)O)[N]3C(=O)C[S][TcH]132=[O] (centres unmarked) [Example 26]
IC50 [1]: 290 nM
